Measured values reported in US6737383B1, “Herbicidal oxadiazolidines” (priority 1999, dated 2004).

Assays:
[1] = system: corn; experiment: Test B pre/postemergence corn; type: in vivo, Zea mays
Method in brief: (§1)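 Test chemicals in a non-phytotoxic solvent mixture with surfactant were sprayed preemergence onto planted seeds and postemergence onto plants 2 to 18 cm tall (1- to 4-leaf stage). After twelve to sixteen days in a greenhouse, injury was visually rated against untreated controls from 0 (no effect) to 10 (complete control).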

[2] = system: pigweed; experiment: Test B pre/postemergence pigweed; type: in vivo, Amaranthus retroflexus
Method in brief: as §1

[3] = system: surinam grass; experiment: Test B pre/postemergence surinam grass; type: in vivo, Brachiaria decumbens
Method in brief: as §1

[4] = system: morningglory; experiment: Test B pre/postemergence morningglory; type: in vivo, Ipomoea hederacea
Method in brief: as §1

[5] = system: wheat; experiment: Test B pre/postemergence wheat; type: in vivo, Triticum aestivum; settings: for Plant response rating, Wheat: Rate 250 g/ha
Method in brief: as §1

[6] = system: giant foxtail; experiment: Test B pre/postemergence giant foxtail; type: in vivo, Setaria faberii
Method in brief: as §1

[7] = system: sugar beet; experiment: Test B pre/postemergence sugar beet; type: in vivo, Beta vulgaris; settings: for Plant response rating, Sugarbeets: Rate 250 g/ha
Method in brief: as §1

[8] = system: rape; experiment: Test B pre/postemergence rape; type: in vivo, Brassica napus
Method in brief: as §1

[9] = system: velvetleaf; experiment: Test B pre/postemergence velvetleaf; type: in vivo, Abutilon theophrasti; settings: for Plant response rating, Velvetleaf: Rate 250 g/ha
Method in brief: as §1

[10] = system: bedstraw; experiment: Test B pre/postemergence bedstraw; type: in vivo, Galium aparine; settings: Preemergence
Method in brief: as §1

[11] = system: purple nutsedge; experiment: Test B pre/postemergence purple nutsedge; type: in vivo, Cyperus rotundus
Method in brief: as §1

[12] = system: crabgrass; experiment: Test B pre/postemergence crabgrass; type: in vivo, Digitaria sanguinalis
Method in brief: as §1

[13] = system: cocklebur; experiment: Test B pre/postemergence cocklebur; type: in vivo, Xanthium strumarium
Method in brief: as §1

[14] = system: soybean; experiment: Test B pre/postemergence soybean; type: in vivo, Glycine max
Method in brief: as §1

[15] = Postemergence, Rate 62 g/ha, scale 0 to 10, 0 is no effect, 10 is complete control
[16] = Postemergence, Rate 125 g/ha, scale of 0 to 10 where 0 is no effect and 10 is complete control
[17] = Postemergence, Rate 250 g/ha, scale 0 to 10, 0 no effect, 10 complete control
[18] = Preemergence, Rate 62 g/ha, scale 0 to 10 (0 no effect, 10 complete control)
[19] = Preemergence, Rate 125 g/ha, scale 0 to 10 (0 no effect, 10 complete control)
[20] = Preemergence, Rate 250 g/ha, scale of 0 to 10 where 0 is no effect and 10 is complete control
[21] = Preemergence, Rate 500 g/ha, scale 0 (no effect) to 10 (complete control)
[22] = Rate 500 g/ha, Postemergence, scale 0 to 10, 0 no effect, 10 complete control
[23] = Rate 250 g/ha, Postemergence, scale 0 to 10, 0 is no effect, 10 is complete control
[24] = Preemergence, Rate 125 g/ha, 0 is no effect, 10 is complete control
[25] = Preemergence, scale of 0 to 10 where 0 is no effect and 10 is complete control
[26] = Postemergence, scale 0 to 10, 0 is no effect, 10 is complete control

CCCn1c(=O)on(C(=O)N(c2ccc(F)cc2)C(C)C)c1=O [Compound 91]
Corn plant response rating [1, 15]: 2 | Corn plant response rating [1, 16]: 2 | Corn plant response rating [1, 17]: 3 | Corn plant response rating [1, 18]: 3 | Plant response rating, Corn [1, 19]: 6 | Plant response rating, Corn [1, 20]: 8 | Corn plant response rating [1, 21]: 9 | Corn plant response rating [1, 22]: 5 | Redroot pigweed plant response rating [2, 15]: 1 | Redroot pigweed plant response rating [2, 16]: 4 | Redroot pigweed plant response rating [2, 18]: 6 | Plant response rating, Redroot pigweed [2, 19]: 9 | Plant response rating, Redroot pigweed [2, 20]: 10 | Redroot pigweed plant response rating [2, 21]: 10 | Plant response rating, Redroot pigweed [2, 23]: 6 | Redroot pigweed plant response rating [2, 22]: 8 | B. signalgrass plant response rating [3, 15]: 4 | B. signalgrass plant response rating [3, 17]: 8 | B. signalgrass plant response rating [3, 18]: 7 | Plant response rating, B. signalgrass [3, 19]: 10 | Plant response rating, B. signalgrass [3, 20]: 10 | B. signalgrass plant response rating [3, 21]: 10 | B. signalgrass plant response rating ([3]; Rate 125 g/ha, Postemergence, scale 0 to 10, 0 no effect, 10 complete control): 4 | B. signalgrass plant response rating ([3]; Rate 500 g/ha, Postemergence, scale of 0 to 10 where 0 is no effect and 10 is complete control): 8 | Morningglory plant response rating [4, 15]: 7 | Morningglory plant response rating [4, 16]: 7 | Morningglory plant response rating [4, 17]: 8 | Morningglory plant response rating [4, 18]: 0 | Plant response rating, Morningglory [4, 19]: 0 | Plant response rating, Morningglory [4, 20]: 4 | Morningglory plant response rating [4, 21]: 6 | Morningglory plant response rating [4, 22]: 9 | Wheat plant response rating [5, 15]: 1 | Wheat plant response rating [5, 16]: 1 | Wheat plant response rating [5, 18]: 3 | Wheat plant response rating (0 to 10 scale) [5, 24]: 4 | Plant response rating, Wheat [5, 25]: 4 | Wheat plant response rating [5, 21]: 6 | Plant response rating, Wheat [5, 26]: 4 | Wheat plant response rating [5, 22]: 6 | Giant foxtail plant response rating [6, 15]: 8 | Giant foxtail plant response rating [6, 16]: 8 | Giant foxtail plant response rating [6, 17]: 8 | Giant foxtail plant response rating [6, 18]: 10 | Plant response rating, Giant foxtail [6, 19]: 10 | Plant response rating, Giant foxtail [6, 20]: 10 | Giant foxtail plant response rating [6, 21]: 10 | Giant foxtail plant response rating [6, 22]: 9 | Sugarbeets plant response rating [7, 15]: 3 | Sugarbeets plant response rating [7, 16]: 6 | Sugarbeets plant response rating [7, 18]: 7 | Sugarbeets plant response rating (0 to 10 scale) [7, 24]: 7 | Plant response rating, Sugarbeets [7, 25]: 9 | Sugarbeets plant response rating [7, 21]: 10 | Plant response rating, Sugarbeets [7, 26]: 6 | Sugarbeets plant response rating [7, 22]: 6 | Rape plant response rating [8, 15]: 2 | Rape plant response rating [8, 16]: 3 | Rape plant response rating [8, 17]: 4 | Rape plant response rating [8, 18]: 7 | Plant response rating, Rape [8, 19]: 8 | Plant response rating, Rape [8, 20]: 10 | Rape plant response rating [8, 21]: 10 | Rape plant response rating [8, 22]: 10 | Velvetleaf plant response rating [9, 15]: 0 | Velvetleaf plant response rating [9, 16]: 0 | Velvetleaf plant response rating [9, 18]: 6 | Velvetleaf plant response rating (0 to 10 scale) [9, 24]: 6 | Plant response rating, Velvetleaf [9, 25]: 7 | Velvetleaf plant response rating [9, 21]: 8 | Plant response rating, Velvetleaf [9, 26]: 3 | Bedstraw plant response rating ([10]; Rate 62 g/ha, scale 0 to 10 (0 no effect, 10 complete control)): 0 | Plant response rating, Bedstraw ([10]; Rate 125 g/ha, scale 0 to 10 (0 no effect, 10 complete control)): 1 | Plant response rating, Bedstraw ([10]; Rate 250 g/ha, scale of 0 to 10 where 0 is no effect and 10 is complete control): 5 | Bedstraw plant response rating ([10]; Rate 500 g/ha, scale 0 (no effect) to 10 (complete control)): 8 | Nutsedge plant response rating [11, 15]: 0 | Nutsedge plant response rating [11, 16]: 0 | Nutsedge plant response rating [11, 17]: 0 | Nutsedge plant response rating [11, 18]: 0 | Plant response rating, Nutsedge [11, 19]: 0 | Plant response rating, Nutsedge [11, 20]: 0 | Nutsedge plant response rating [11, 22]: 0 | Crabgrass plant response rating [12, 15]: 5 | Crabgrass plant response rating [12, 16]: 9 | Crabgrass plant response rating [12, 17]: 9 | Crabgrass plant response rating [12, 18]: 10 | Plant response rating, Crabgrass [12, 19]: 10 | Plant response rating, Crabgrass [12, 20]: 10 | Crabgrass plant response rating [12, 21]: 10 | Crabgrass plant response rating [12, 22]: 9 | Cocklebur plant response rating [13, 15]: 3 | Cocklebur plant response rating [13, 16]: 3 | Cocklebur plant response rating [13, 17]: 4 | Cocklebur plant response rating [13, 18]: 0 | Plant response rating, Cocklebur [13, 19]: 0 | Cocklebur plant response rating [13, 21]: 3 | Cocklebur plant response rating [13, 22]: 4 | Soybean plant response rating [14, 15]: 3 | Soybean plant response rating [14, 16]: 3 | Soybean plant response rating [14, 18]: 0 | Plant response rating, Soybean [14, 19]: 0 | Plant response rating, Soybean [14, 20]: 4 | Soybean plant response rating [14, 21]: 7 | Plant response rating, Soybean [14, 23]: 4 | Soybean plant response rating [14, 22]: 5
